# Results reported in patent EP4813999A1, “NOVEL PEPTIDE DERIVATIVE AND PHARMACEUTICAL COMPOSITION FOR PREVENTING OR TREATING MACULAR DEGENERATION COMPRISING SAME” (Supadelixir Inc., priority 2023, dated 2026).
# What was measured:
# [1] = tested on: ARPE19 cells; test: Hydrogen peroxide-induced cellular senescence (SA-β-Gal activity staining); format: cell-based, Human; details: 200 µM hydrogen peroxide, test substance 0.01, 0.1, 1 µM, 24 hours
# Procedure: (§1) Human retinal pigment epithelial cells (ARPE19) were cultured in a humidified incubator with 5% CO2 at 37°C. DMEM/F12 (Gibco) containing 10% fetal bovine serum and penicillin (100 U/ml)/streptomycin ([…]) was used as medium. The cells were cultured with the medium replaced with fresh medium every other day and were passaged using 0.25% trypsin containing 0.02% ethylenediaminetetraacetic acid (EDTA).
# After cellular senescence caused by oxidative stress was promoted in ARPE19 cells using hydrogen peroxide (H2O2), the test substance (SE101B2L) was added at varying concentrations to evaluate inhibitory effects against cellular senescence. Inhibitory activity against cellular senescence was evaluated using senescence-associated β-galactosidase (SA-β-Gal) activity staining, which is well known as a marker for cellular senescence.
# ARPE19 cells were seeded into a 96-well plate at 1 × 10^5 cells/well and cultured in an incubator with 5% CO2 at 37°C for 24 hours. […] Cells stained blue were observed under an optical microscope, and the degree of SA-β-gal activity was expressed as a percentage by measuring the number of cells stained blue in the cytoplasm among a total of 50 to 100 cells. The degree of senescence was quantified through measurement.
# [2] = tested on: ARPE19 cells; test: Hydrogen peroxide-induced apoptosis (phosphatidylserine / CytoCalcein Violet 450 staining); format: cell-based, Human; details: 200 µM hydrogen peroxide, test substance 0.01, 0.1, 1 µM, 24 hours
# Procedure: as §1
# After apoptosis was induced in ARPE19 cells using hydrogen peroxide (H2O2), the test substance (SE101B2L) was added at varying concentrations to evaluate inhibitory effects against apoptosis. Inhibitory effects against apoptosis were measured using phosphatidylserine (PS), which is exposed on the surface of apoptotic cells.
# ARPE19 cells were seeded into a 24-well microplate containing coverslips at 1 × 10^6 cells/well and cultured in an incubator with 5% CO2 at 37°C for 24 hours. When approximately 80% confluency was reached, the test substance was added to each treatment group at concentrations of 0, 0.01, 0.1, and 1 µM, together with 200 µM hydrogen peroxide, followed by incubation for 24 hours. […] Emission signals detected from each cell were measured using a digital fluorescence microscope (CELENA S digital imaging system, Logos Biosystems, Korea) to quantify apoptotic cells and live cells.
substance,measurement,setting,value
decylbenzoyl-Cys-Phe-Lys-amide [SE101B2L],SA-β-gal activity,[1],decreases SA-β-gal activity in a concentration-dependent manner
same,apoptotic cells (green),[2],apoptotic cells (green) decrease
same,live cells (blue),[2],live cells (blue) increase in a concentration-dependent manner
